Assay results as given in EPA's ToxRefDB 2.

Columns and labels:
rat [1] = conditions: Developmental neurotoxicity study; wistar; Inhalation; Whole-Body; dose end: 98 PND; group: cannot be grouped; systemic / in life observation / body weight / offspring (pup) weight
rat [2] = conditions: Developmental neurotoxicity study, wistar, Inhalation, Whole-Body, dose end: 81 PND, group: cannot be grouped
mouse [3] = conditions: Developmental neurotoxicity study; cd1; Inhalation; Whole-Body; dose end: 20 PND; group: cannot be grouped; systemic / in life observation / body weight / offspring (pup) weight gain + systemic / in life observation / clinical signs / grip strength
rat [4] = conditions: Developmental neurotoxicity study; wistar; Inhalation; Whole-Body; dose end: 119 PND; group: cannot be grouped; systemic / in life observation / body weight / offspring (pup) weight
rat [5] = conditions: Developmental neurotoxicity study; sprague dawley; Inhalation; Whole-Body; dose end: 21 PND; group: cannot be grouped; developmental / developmental malformation / general / [other] + systemic / in life observation / body weight / offspring (pup) weight + …
rat [6] = conditions: Developmental neurotoxicity study, sprague dawley, Inhalation, Whole-Body, dose end: 63 PND, group: cannot be grouped
rat [7] = conditions: Carcinogenicity, sprague dawley, Oral, Gavage/Intubation, dose end: 105 week, group: systemic
mouse [8] = conditions: Multigenerational reproductive toxicity study, cd1, Oral, Feed, dose end: 1 generation
rat [9] = conditions: Subchronic oral toxicity in rodents, fischer, Feed, dose end: 13 week, group: systemic
rat [10] = conditions: Subchronic oral toxicity in rodents, fischer, Feed, dose end: 13 week, group: systemic; remark: listed apart in the source
mouse [11] = conditions: Subchronic oral toxicity in rodents, b6c3f1, Feed, dose end: 13 week, group: systemic
dog [12] = conditions: Chronic toxicity; beagle; Oral; Capsule; dose end: 33 week; group: systemic; systemic / hematology / hematocrit (hct) / hematocrit (hct) + systemic / hematology / hemoglobin (hgb) / hemoglobin (hgb) + systemic / organ…
rat [13] = conditions: Chronic toxicity; other; Oral; Feed; dose end: 26 week; group: systemic; systemic / in life observation / body weight / body weight gain + systemic / in life observation / food consumption / food consumption + …
dog [14] = conditions: Sub-acute repeat dose toxicity; beagle; Injection; Intravenous; dose end: 1 month; group: systemic; systemic / hematology / erythrocyte (rbc) count differential / erythrocyte (rbc) + systemic / hematology / hematocrit (hct) / hematocrit (…
[15] = systemic / in life observation / body weight / body weight + systemic / in life observation / body weight / body weight gain + developmental…
[16] = systemic / in life observation / body weight / body weight gain + systemic / in life observation / clinical signs / motor activity
[17] = systemic / in life observation / body weight / body weight gain + systemic / in life observation / clinical signs / motor activity + …
[18] = systemic / clinical chemistry / [other] / [other] + systemic / clinical chemistry / thyroxine (t4) / thyroxine (t4), total + systemic / …
[19] = systemic / clinical chemistry / [other] / [other] + systemic / organ weight / liver / relative to body weight + systemic / clinical …
[20] = group: offspring, systemic / in life observation / body weight / offspring (pup) weight + systemic / in life observation / body weight / offspring (pup) …
[21] = group: parental, systemic / in life observation / body weight / body weight + systemic / in life observation / mortality / mortality + systemic / in life …
[22] = group: reproductive, reproductive / offspring survival early / birth index / live birth index
[23] = systemic / pathology microscopic / kidney / cytoplasmic alteration + systemic / pathology microscopic / kidney / dilatation + systemic / …
[24] = systemic / pathology microscopic / kidney / regeneration + systemic / urinalysis / aspartate aminotransferase (ast/sgot) / aspartate …
[25] = systemic / pathology microscopic / kidney / dilatation + systemic / pathology microscopic / kidney / hyaline droplet + systemic / pathology …
[26] = systemic / pathology microscopic / kidney / regeneration + systemic / clinical chemistry / thyroxine (t4) / thyroxine (t4), free + systemic…
[27] = systemic / clinical chemistry / alanine aminotransferase (alt/sgpt) / alanine aminotransferase (alt/sgpt) + systemic / clinical chemistry / …
[28] = systemic / in life observation / body weight / body weight + systemic / organ weight / liver / absolute

Work on `Cc1ccccc1` [Toluene] yielded an LEL (rat [1]) of 1800 ppm, an LOAEL (rat [1]) greater than 1800 ppm and an NEL (rat [1]) of less than 1800 ppm. The NOAEL (rat [1]) was no less than 1800 ppm, the NEL (rat [2]; systemic / in life observation / body weight / body weight + systemic / in life observation / body weight / body weight gain) was 600 ppm and the LEL (rat [2]; [15]) was 1000 ppm. It also gave an LOAEL (rat [2]; [15]) greater than 1200 ppm, an NOAEL (rat [2]; [15]) of no less than 1200 ppm and an LEL (mouse [3]) of 2000 ppm. For the same compound, the LOAEL (mouse [3]) was greater than 2000 ppm, the NEL (mouse [3]) was 400 ppm and the NOAEL (mouse [3]) was no less than 2000 ppm. It also gave an LEL (rat [4]) of 1200 ppm, an LOAEL (rat [4]) greater than 1200 ppm and an NEL (rat [4]) of less than 1200 ppm. For the same compound, the NOAEL (rat [4]) was no less than 1200 ppm, the LEL (rat [5]) was 12000 ppm and the LOAEL (rat [5]) was greater than 12000 ppm. It also gave an NEL (rat [5]) of 8000 ppm, an NOAEL (rat [5]) of no less than 12000 ppm and an LEL (rat [6]; [16]) of 8000 ppm. It also gave an NEL (rat [6]; [16]) of less than 8000 ppm, an LOAEL (rat [6]; [17]) greater than 12000 ppm and an NOAEL (rat [6]; [17]) of no less than 12000 ppm.
`Clc1cc2oc3c(Cl)c(Cl)c(Cl)cc3c2cc1Cl` [2,3,4,7,8-Pentachlorodibenzofuran] was tested, and the LOAEL (rat [7]; [18]) was greater than 0.0002 mg/kg/day, the NOAEL (rat [7]; [18]) was no less than 0.0002 mg/kg/day and the LEL (rat [7]; [19]) was 6e-06 mg/kg/day. The NEL (rat [7]; [19]) was less than 6e-06 mg/kg/day.
In the case of `Clc1cc(Cl)c(Cl)cc1Cl` [1,2,4,5-Tetrachlorobenzene], the LEL (mouse [8]; [20]) is reported as 100 mg/kg/day, the LOAEL (mouse [8]; [20]) is reported as greater than 250 mg/kg/day and the NEL (mouse [8]; [20]) is reported as 40 mg/kg/day. For the same compound, the NOAEL (mouse [8]; [20]) was no less than 250 mg/kg/day, the NEL (mouse [8]; group: parental, systemic / in life observation / body weight / body weight + systemic / in life observation / mortality / mortality) was 40 mg/kg/day and the LOAEL (mouse [8]; [21]) was greater than 250 mg/kg/day. It also gave an NOAEL (mouse [8]; [21]) of no less than 250 mg/kg/day, an LEL (mouse [8]; group: parental, systemic / in life observation / body weight / body weight + systemic / organ weight / testes / absolute) of 100 mg/kg/day and an LEL (mouse [8]; [22]) of 100 mg/kg/day. For the same compound, the LOAEL (mouse [8]; [22]) was greater than 250 mg/kg/day, the NEL (mouse [8]; [22]) was 40 mg/kg/day and the NOAEL (mouse [8]; [22]) was no less than 250 mg/kg/day. For the same compound, the LOAEL (rat [9]; [23]) was 7.1 mg/kg/day, the NOAEL (rat [9]; [23]) was 2.1 mg/kg/day and the LEL (rat [9]; [24]) was 2.1 mg/kg/day. It also gave an NEL (rat [9]; [24]) of less than 2.1 mg/kg/day, an LOAEL (rat [10]; [25]) of 7.1 mg/kg/day and an NOAEL (rat [10]; [25]) of 2.1 mg/kg/day. The LEL (rat [10]; [26]) was 2.1 mg/kg/day, the NEL (rat [10]; [26]) was less than 2.1 mg/kg/day and the LOAEL (mouse [11]; [27]) was greater than 450 mg/kg/day. It also gave an NOAEL (mouse [11]; [27]) of no less than 450 mg/kg/day, an LEL (mouse [11]; [28]) of 4 mg/kg/day and an NEL (mouse [11]; [28]) of less than 4 mg/kg/day.
`CN(C)[C@@H]1C(=O)C(C(N)=O)=C(O)[C@@]2(O)C(=O)C3=C(O)c4c(O)cccc4[C@@](C)(O)[C@H]3C[C@@H]12` [Tetracycline] showed an LEL (dog [12]) of 500 mg/kg/day, an LOAEL (dog [12]) greater than 500 mg/kg/day and an NEL (dog [12]) of 250 mg/kg/day. It also gave an NOAEL (dog [12]) of no less than 500 mg/kg/day, an LEL (rat [13]) of 125 mg/kg/day and an LOAEL (rat [13]) greater than 500 mg/kg/day. For the same compound, the NEL (rat [13]) was less than 125 mg/kg/day, the NOAEL (rat [13]) was no less than 500 mg/kg/day and the LEL (dog [14]) was 40 mg/kg/day. For the same compound, the LOAEL (dog [14]) was greater than 40 mg/kg/day, the NEL (dog [14]) was less than 40 mg/kg/day and the NOAEL (dog [14]) was no less than 40 mg/kg/day.
